ChEMBL document CHEMBL3507680, “University of Dundee, Gates Library screen for HepG2 cell viability”

Test: Human HepG2 cell viability assay in 384 well format
Type: toxicity, cell-based
Parameters: dose 125 nL, time 70.5 hour; concentration not given beside the values
Settings: HepG2 cells, read-out: Inhibition

Row | SMILES | cytotoxicity at 70.5 h [%]
1 | CC(C)N(Cc1nc(-c2cccs2)no1)CC1CCC(=O)N1 (stereo not given) | -11.1
2 | O=C(CCNC(=O)c1ccoc1)Nc1cc(F)cc(F)c1 | -10.4
3 | CN(C)C(=O)COC1COC2(CCN(c3cnccn3)CC2)C1 (stereo not given) | 1.25
4 | CN(Cc1ccco1)[C@@H]1CN(Cc2ccoc2)C[C@@H]2CCCO[C@@H]21 | -7.61
5 | O=C(C1CCCCO1)N1CCc2ncnc(NCCO)c2CC1 (stereo not given) | -2.71
6 | Cc1nc(CN(C)C2CCCN(c3cccnn3)C2)no1 (stereo not given) | 17.1
7 | Cc1cnc(CN2CCCC2c2noc(C(C)C)n2)cn1 (stereo not given) | 1.04
8 | Cc1cnn(CCNCCCOc2ccc(C#N)cc2)c1 | 3.37
9 | COc1ccc2c(c1)CC(NCc1cccc(OCC(N)=O)c1)CC2 (stereo not given) | -10.5
10 | COCC(=O)NC[C@H]1CC[C@H](c2nnc(-c3cccnc3)o2)CC1 | -7.6
11 | Cc1ccc(S(=O)(=O)NC(=O)c2cccc3c2OCCO3)c(C)c1 | -3.86
12 | CCc1cnc(C)nc1NCC(O)CN1CCCCCC1 (stereo not given) | -4.26
13 | CCCn1ccnc1CN1CCCC(O)(CN2CCCC2)C1 (stereo not given) | -2.63
14 | CNC(=O)C1(CCCc2ccccn2)CN(Cc2scnc2C)C1 | 27.6
15 | O=S(=O)(Cc1ccccc1CN1CC[C@H](CO)[C@H](O)C1)c1ccccc1 | -7.73
16 | CC(C)N(C)CC(=O)N(C)C(c1cccc(F)c1)c1ccccn1 (stereo not given) | 40.9
17 | COCCC1(CO)CCCN(Cc2ccc(C#N)cc2)C1 (stereo not given) | -1.95
18 | Cc1nc(C(C)N2Cc3ncccc3C2=O)cs1 (stereo not given) | -12.4
19 | NC(=O)c1cc(CC2CCCN(Cc3cnccn3)CC2)ncn1 (stereo not given) | -2.22
20 | Clc1ccc(CNc2cnn(CCN3CCOCC3)c2)cc1Cl | -19.4
21 | O=c1n(CCSCc2ccccc2F)nc2ccccn12 | -11.3
22 | CSc1ccsc1C(=O)NC(C)c1ccc2c(c1)CCC(=O)N2 (stereo not given) | 11.2
23 | Cc1ccc(CN(C)C(=O)CN2CCOC(Cn3cncn3)C2)o1 (stereo not given) | 9.12

Row | SMILES | cytotoxicity at 70.5 h [%]
24 | CC(=O)N1CCC2(CCN(Cc3cccc(F)c3)CC2)CC1 | -2.12
25 | Cc1cccc(CN2C[C@@H]3CC[C@H](C2)N(Cc2c(C)noc2C)C3=O)n1 | -3.2
26 | CCOCCN1CCN(Cc2nnc(-c3ccco3)o2)CC1 | -5.68
27 | CN1CC2(CCN(C(=O)c3ccc4nccnc4c3)CC2)CC1=O | -4.39
28 | Cn1cc(C(=O)NCc2cncc3c2CCNC3)cn1 | 23.2
29 | O=C1O[C@@H]2CN(Cc3ccccc3)C[C@@H]2N1CCCN1CCOCC1 | -7.7
30 | CC(C)C(C(=O)N1CCC(Nc2cccnn2)CC1)n1cncn1 (stereo not given) | -11.9
31 | Cc1ccc(C)c(CN2CCCn3nc(CNS(C)(=O)=O)cc3C2)c1 | 15.4
32 | Cc1ccc2nc(CN3CCN(C4CCCC4)C(=O)C3)cc(O)c2c1 | 9.29
33 | Cc1ccc(C(=O)N2CCN(CC(O)c3ccc(F)cc3)CC2)s1 (stereo not given) | -6.7
34 | Cn1cc(C(=O)N2CCCN(c3cccnn3)CC2)c2ccccc21 | -0.532
35 | CC(=O)Nc1nc(C(=O)NCc2ccc(OC(C)C)nc2)cs1 | -5.15
36 | CC(NC(=O)c1ccc2c(c1)COC2)c1cccc(N2CCOC2=O)c1 (stereo not given) | -0.257
37 | Cc1ccc(-c2c[nH]c([C@@H]3COCCN3Cc3ncc[nH]3)n2)cc1 | 6.46
38 | CCOC(=O)[C@]12CCCN(Cc3nccs3)C[C@H]1CN(CCOC)C2 | -1.13
39 | CCN(CC(F)(F)F)C(=O)C1CCCN(Cc2nc(C)c(C)o2)C1 (stereo not given) | -1.99
40 | Cc1ccccc1C(NC(=O)CNC(=O)c1ccoc1C)C(C)C (stereo not given) | 11.7
41 | CCc1nnsc1C(=O)N(C)Cc1ccc(Br)o1 | -2.39
42 | Cc1cc(NC(=O)C(c2cccc(F)c2)N2CCOCC2)sn1 (stereo not given) | 8.13
43 | Cc1oncc1C(=O)N1CCC2(CC1)CC(c1ccccc1)C(=O)N2C (stereo not given) | -19
44 | COc1ccccc1OC1(C(=O)O)CCN(c2cc(C)nc(C)c2)CC1 | -0.575
45 | CCc1ncc(C(=O)N2CCCC2Cn2cccn2)s1 (stereo not given) | 12.3
46 | COc1ccc(CNc2cc3[nH]c(O)nc3cc2C)cc1 | -5.05

Row | SMILES | cytotoxicity at 70.5 h [%]
47 | O=C(Nc1ccccc1)C1CN(Cc2ccco2)CC12CCOCC2 (stereo not given) | -10.6
48 | CCN1N=C(C(=O)N2CCCC(c3nc(C)cs3)C2)CCC1=O (stereo not given) | -2.03
49 | NC1CCCc2c1cnn2-c1cc(F)cc(F)c1 (stereo not given) | -4.65
50 | CN(C)S(=O)(=O)c1ccc(CN2CCCC2c2ccc[nH]2)o1 (stereo not given) | -5.46
51 | Cc1ccc(N2CCO[C@H]3CN(Cc4nccs4)C[C@H]32)nn1 | -6.14
52 | CCn1cnnc1CNC(=O)NC(c1ccc(OC)cc1)C1CC1 (stereo not given) | -6.45
53 | CN(Cc1cc2n(n1)CCCNC2)Cc1ccno1 | -5.8
54 | CC(C)(C)CC(=O)N1CCCC2(CC(C(=O)Nc3ccccc3)=NO2)C1 (stereo not given) | -8.03
55 | COCC1CN(S(=O)(=O)c2ccccc2)Cc2ncnn2C1 (stereo not given) | -6.59
56 | Cn1cnc2c1CCN(CCS(=O)(=O)c1ccc(Cl)cc1)C2 | -5.54
57 | O=S(=O)(NCC1(O)CCOc2ccccc21)c1ccc(Cl)s1 (stereo not given) | -6.65
58 | CCc1nncn1CCNC(=O)Nc1ccc2c(c1)CCCO2 | 1.85
59 | Cc1nn(C)c(C)c1C(C(=O)O)N1CC=C(c2ccccc2)CC1 (stereo not given) | 10.9
60 | COc1ccc(-n2cc(CNC(=O)c3cscn3)nn2)cc1 | -17.7
61 | CN1CCCC2(CCN(c3cccc(C(F)(F)F)n3)C2)C1=O (stereo not given) | -6.46
62 | Cc1ccc(-c2cnc3n2CCN(C)C32CCN(CC3CC3)CC2)cc1 | -1.92
63 | c1ccc2c(c1)CCN2c1nc(N2CCOCC2)c2nn[nH]c2n1 | 32.9
64 | CC(C)(NCC(=O)NC(=O)NC1CC1)c1ccc2c(c1)OCO2 | -3.04
65 | CCS(=O)(=O)N1CCC2(CN(Cc3ccc(C)o3)C2)C1 | -13.4
66 | CCc1ccc2nc(C)cc(C(=O)NCc3csc(N(C)C)n3)c2c1 | 16.3
67 | CCN(C)C(=O)[C@H]1C[C@@](CC(C)C)(C(=O)OC)N(C)[C@H]1c1cccnc1 | -3.05
68 | COc1cccc(COCC(=O)NC2CCN(CC(N)=O)CC2)c1 | -5.13
69 | Cc1nc(C(C)(C)NC(=O)Nc2ccc(C#N)cc2)no1 | -4.52

Row | SMILES | cytotoxicity at 70.5 h [%]
70 | CC(C)N(CC1CCCN(Cc2ccon2)C1)C(=O)OC(C)(C)C (stereo not given) | -2.83
71 | Cc1nc(C)n(C2CCCN(C(=O)c3ccc4nccn4c3)C2)n1 (stereo not given) | 22.7
72 | CSCCC(Nc1nc(C)cc(C)n1)C(=O)NC(C)(C)CO (stereo not given) | 25.7
73 | COc1ccc(CN(C)CC(O)COCc2ccccc2Cl)c(OC)c1 (stereo not given) | 16.2
74 | Cc1nc(COC[C@H]2CCC[C@]23CN(C2CCOC2)CCO3)cs1 (stereo not given in full) | 22.4
75 | Cc1ccc(-c2nc(CNCCn3cccn3)cs2)o1 | -7.84
76 | CSCCCN1CCN(c2ccc(Cl)cn2)CC1 | -5.7
77 | COCCN1C(=O)CC(c2cccnc2)C12CCN(C)CC2 (stereo not given) | 0.172
78 | O=C(NCCc1ccccc1)C1CCC(Cn2cnnn2)CC1 (stereo not given) | -2.34
79 | Cc1ccccc1CCCN1CCS(=O)(=O)CC1C (stereo not given) | -6.59
80 | Cc1ccc(S(=O)(=O)N2CCOCC2C#N)c(F)c1 (stereo not given) | 2.28
81 | Cc1nc(C2CCCN2C(=O)c2cc3c(s2)CCCC3)no1 (stereo not given) | -3.98
82 | c1ccc2oc(CN3CCCC3Cn3cncn3)nc2c1 (stereo not given) | -6.61
83 | OC1(c2ccccc2F)CCN(Cc2ccccc2N2CCCC2)CC1 | 12.6
84 | COc1cc(N2C[C@@H]3COC[C@]3(COc3ccc(C#N)cn3)C2)ncn1 | 7.01
85 | CNC(=O)CCc1cccc(OC2CCCC2)c1 | -12.2
86 | CC(NS(C)(=O)=O)C(=O)N1CCCN(Cc2cscn2)CC1 (stereo not given) | -1.86
87 | COc1c(CNCc2ccccc2CO)c(C)nn1C | -5.09
88 | CC(CN1CCOCC1)n1cncc1-c1ccc2c(c1)CCCN2C (stereo not given) | -10.1
89 | CCN(CCO)Cc1ccc(Br)c2cccnc12 | -1.88
90 | Cc1nc(CN2CCN(C(=O)c3ccnc(N(C)C)c3)CC2)cs1 | -14.4
91 | COc1ccccc1-c1ccccc1CC1(C(=O)O)CCNCC1 | 0.76
92 | CC(Cn1cncn1)NC1CCN(Cc2cccc(O)c2)CC1 (stereo not given) | -2.81

Row | SMILES | cytotoxicity at 70.5 h [%]
93 | CN(CCc1ccccn1)Cc1nccn1Cc1ccccc1 | 11.8
94 | Cc1cc(C2CCCN2Cc2ccc(S(=O)(=O)N(C)C)o2)on1 (stereo not given) | -1.52
95 | O=C(N[C@@H]1CN(CCc2ccc(F)cc2)C[C@H]1O)c1cscn1 | -6.14
96 | Cn1ccc(CN2CCC(CC(=O)NC3CCCC3)CC2)cc1=O | 15
97 | Cc1cc(NCc2ccc(S(N)(=O)=O)cc2)nc(C)n1 | -13.8
98 | CCC(O)Cn1cc(C2=CCN(Cc3ccc(OC)cc3)CC2)cn1 (stereo not given) | -11.9
99 | Cc1cc(N2CCN(Cc3ccsc3)C(CCO)C2)nc(N)n1 (stereo not given) | -6.22
100 | Cc1cnn(CC2CN(c3ncnc4ccccc34)CCO2)c1 (stereo not given) | 31.7
101 | COc1ccccc1CC(=O)N1CCC(OCc2cccnc2)CC1 | -13.8
102 | CC(C)(C)c1noc(CN2CCN(C(=O)c3cccs3)CC2)n1 | -12.1
103 | CC(=O)Nc1cccc2c1ccn2CC(=O)NC(C)C | -2.5
104 | CC(C)n1nc(O)c2c1NC(=O)CSC2c1cnn(C)c1 (stereo not given) | -19.6
105 | COc1ccc(CN2CC[C@H](NC(C)=O)[C@@H](O)CC2)c(F)c1 | -5.93
106 | CCN(CC)C(=O)c1ccc(-c2ccsc2)nc1C | -6.78
107 | CCCOC1Sc2nnc(C)n2N=C1c1ccccc1 (stereo not given) | -9.6
108 | Cc1cc(O)cc(=O)n1CCCC(=O)Nc1n[nH]c2ccccc12 | -11.5
109 | O=C(CCc1ccc(C(F)(F)F)cc1)N1CCCS1(=O)=O | -4.91
110 | CCCn1ccc2cc(NC(=O)NCCn3cnnc3CC)ccc21 | -9.53
111 | COc1ccc(F)cc1C(=O)N1CCCC(n2nc(C)nc2C)C1 (stereo not given) | -9.24
112 | Cc1n[nH]cc1C(=O)NCc1cccnc1N1CCc2ccccc2C1 | -3.05
113 | Cc1cccc(C(=O)N2CC(Cc3nccc4ccn(C)c34)C2)n1 | 1.37
114 | CN1CCc2[nH]cnc2C12CCN(Cc1ccc3nsnc3c1)CC2 | 0.284
115 | CN(CC(=O)Nc1cccnc1)CC1CCCN1c1cccnn1 (stereo not given) | -7.79
